Measurements taken from ChEMBL document CHEMBL1124056, “Derivatives of the muscarinic agent N-methyl-N-(1-methyl-4-pyrrolidino-2-butynyl)acetamide” (J Med Chem, 1988).
Blank lines part the entries; values can stand above or below the compound they belong to.

Tests used:
[1] = species: Mus musculus; assay: Dose required to double the dose of oxotremorine inducing a predetermined (grade 2) tremor intensity in mice; type: functional
[2] = molecular target: Muscarinic acetylcholine receptor; assay: Equilibrium dissociation constant muscarinic receptor complex, measured in guinea pig ileum; type: functional, tissue-based, Cavia porcellus
[3] = species: Cavia porcellus; assay: Concentration that elicits 50% of its own maximum contractile response, in guinea pig ileum; type: functional
[4] = species: Cavia porcellus; assay: Maximum contractile response relative to that elicited by carbachol, in guinea pig ileum; type: functional
[5] = species: Cavia porcellus; assay: Efficacy relative to that of carbachol, measured in guinea pig ileum; type: functional
[6] = species: Cavia porcellus; assay: Equipotent molar ratio relative to that of carbachol, which equals 1, in guinea pig ileum; type: functional
[7] = species: Mus musculus; assay: Dose required to double the dose of oxotremorine inducing a predetermined (grade 2) tremor intensity in mice; g=Agonist; type: functional, organism-based; settings: filed as agonist

Structure (SMILES): CC(C#CCN1CCCC1)N1C(=O)CCC1=O (configuration not stated)
Tremorolytic dose [1]: 1.2 µM/kg
Kd [2]: 0.15 µM

Structure (SMILES): CN(CC#CCN1CCCC1)C(=O)C(F)(F)F
EC50 [3]: 16.9 µM
Tremorolytic dose [1]: 150 µM/kg
Kd [2]: 15.6 µM
EPMR [6]: 145
Emax [4]: 0.16
Relative efficacy [5]: 0.003

Structure (SMILES): CN(CC#CCN1CCCC1)S(C)(=O)=O
Tremorolytic dose [1]: 174 µM/kg
Kd [2]: 68 µM

Structure (SMILES): CC(C#CCN1CCCC1)N(C)C(=O)C(F)(F)F (configuration not stated)
Tremorolytic dose [1]: 21.4 µM/kg
Kd [2]: 0.57 µM
Emax [4]: 0

Structure (SMILES): CC(=O)N(CC#CCN1CCCC1)S(C)(=O)=O
Tremorolytic dose [1]: >200 µM/kg
Kd [2]: 17.9 µM

Structure (SMILES): CC(=O)N(CC#CC[N+](C)(C)C)C(C)=O
EC50 [3]: 2 µM
Kd [2]: 8.2 µM
EPMR [6]: 19.3
Emax [4]: 1
Relative efficacy [5]: 0.034

Structure (SMILES): CC(=O)N(CC#CCN(C)C)C(C)=O
EC50 [3]: 38.8 µM
Tremorolytic dose [1]: >200 µM/kg
Kd [2]: 65.6 µM
EPMR [6]: 320
Emax [4]: 0.84
Relative efficacy [5]: 0.013

Structure (SMILES): CS(=O)(=O)N(CC#CCN1CCCC1)S(C)(=O)=O
Tremorolytic dose [1]: >200 µM/kg
Kd [2]: 15.9 µM

Structure (SMILES): CC(=O)N(CC#CCN1CCCC1)C(C)=O
Tremorolytic dose [1]: 2.9 µM/kg
Kd [2]: 0.44 µM
Emax [4]: 0

Structure (SMILES): CC(=O)N(C(C)C#CCN1CCCC1)S(C)(=O)=O (configuration not stated)
Tremorolytic dose [1]: 99.7 µM/kg
Kd [2]: 3.1 µM

Structure (SMILES): O=C1CCC(=O)N1CC#CCN1CCCC1
EC50 [3]: 1 µM
Tremorolytic dose [1]: 23 µM/kg
Kd [2]: 5 µM
Emax [4]: 0.98
Relative efficacy [5]: 0.027

Structure (SMILES): CCN(CC)CC#CCN(C(C)=O)C(C)=O
Tremorolytic dose [1]: 107 µM/kg
Kd [2]: 7.2 µM
Emax [4]: 0

Structure (SMILES): CC(=O)N(C)CC#CCN1CCCC1
EC50 [3]: 0.069 µM
Kd [2]: 2.2 µM
Emax [4]: 1.01
Relative efficacy [5]: 0.15

Structure (SMILES): CN(C)CC#CCN1C(=O)CCC1=O
EC50 [3]: 2.5 µM
Kd [2]: 208 µM
Tremorolytic dose [7]: Agonist
Emax [4]: 1.01
Relative efficacy [5]: 0.35

Continued, in another order:

EC50 [3]: 0.19 µM
Kd [2]: 0.24 µM
Structure (SMILES): CC(=O)N(C)C(C)C#CCN1CCCC1 (configuration not stated)
Tremorolytic dose [1]: 0.6 µM/kg
Emax [4]: 0.83
Relative efficacy [5]: 0.013

EC50 [3]: 1.2 µM
Kd [2]: 8.6 µM
Structure (SMILES): CC(=O)N(C(C)=O)C(C)C#CC[N+](C)(C)C (configuration not stated)
EPMR [6]: 10.7
Emax [4]: 1.01
Relative efficacy [5]: 0.055

Kd [2]: 1.6 µM
Structure (SMILES): CCN(CC)CC#CC(C)N(C(C)=O)C(C)=O (configuration not stated)
Tremorolytic dose [1]: 39 µM/kg
Emax [4]: 0

EC50 [3]: 5.5 µM
Kd [2]: 21.6 µM
Structure (SMILES): CC(=O)N(C(C)=O)C(C)C#CCN(C)C (configuration not stated)
Tremorolytic dose [1]: 109 µM/kg
EPMR [6]: 57.9
Emax [4]: 0.99
Relative efficacy [5]: 0.03

Kd [2]: 95.4 µM
Structure (SMILES): CC(C#CCN(C)C)N(C)C(=O)C(F)(F)F (configuration not stated)
Tremorolytic dose [1]: >200 µM/kg
Emax [4]: <0.1

EC50 [3]: 27.1 µM
Kd [2]: 91.9 µM
Structure (SMILES): CC(C#CC[N+](C)(C)C)N(C)C(=O)C(F)(F)F (configuration not stated)
EPMR [6]: 214
Emax [4]: 0.89
Relative efficacy [5]: 0.026

EC50 [3]: 0.11 µM
Structure (SMILES): C[N+](C)(C)CCOC(N)=O.[Cl-] [CARBACHOL]
EPMR [6]: 1
Emax [4]: 1

Kd [2]: 13 µM
Structure (SMILES): CC(C#CCN1CCCC1)N(C)S(C)(=O)=O (configuration not stated)
Tremorolytic dose [1]: 82 µM/kg

Kd [2]: 5.4 µM
Structure (SMILES): CC(C#CCN1CCCC1)N(S(C)(=O)=O)S(C)(=O)=O (configuration not stated)
Tremorolytic dose [1]: 157 µM/kg

Kd [2]: 0.28 µM
Structure (SMILES): CC(=O)N(C(C)=O)C(C)C#CCN1CCCC1 (configuration not stated)
Tremorolytic dose [1]: 3.2 µM/kg
Emax [4]: 0
